Marks after values point to notes of the source that are not given here.
Assays:
[1] = Stability in water by HPLC (loss of titre and purity after 8 hours); assay type: physicochemical; conditions: 1 mg/mL in DMSO diluted 1:10 with deionised water, HPLC at time 0 and after 8 hours; result in words
Method: Protocol: each sample is dissolved in DMSO at the concentration of 1 mg/mL and then diluted 1:10 with deionised water. The solution is analysed in HPLC at time 0 and after 8 hours and any loss of titre and/or of purity is recorded by the following method: Column: Luna C18 (2) 150*4.6 mm (5 μm);
elution in gradient of AcOH 0.1% in water (Eluent A) and methanol (Eluent B) with % B 10-100 in 20 min or 40-100 depending on the polarity of the injected compound; flow 1 mL/min; temperature: 25° C.; injection […]; detection at 686 nm, bw 20 nm.

[2] = tested on: Candida albicans; conditions: 99.9% reduction; 1 hr incubation at 37° C.; red light 600-700 nm, 50 mW/cm^2 for 10 min, 30 J/cm^2
Method: (§1) The bacterial and fungal cells (ATCC of Staphylococcus aureus, Escherichia coli and Pseudomonas aeruginosa strains for the bacteria, Candida albicans for the yeasts) are grown in a Tryptic Soy Broth (TSB) liquid medium at 37° C. for 16-20 hr (bacteria) and in Sabouraud Dextrose Broth (SDB) at 37° C. for 24 hr (yeasts) in an aerobic atmosphere.
(§2) The cells are collected for centrifugation (2000 g, 15 min.) and re-suspended in sterile PBS (pH=7.3±0.1).
(§3) Exposure of the microorganisms to the photosensitiser and to the light source is carried out in wells of sterile, polystyrene, Microtiter plates, in PBS containing the desired concentration of photosensitiser. The plate is left to incubate at room temperature, for 5 min for the bacteria and for 1 hr at 37° C. for the yeasts. For lighting with red visible light a halogen lamp is used, model PDT 1200 Waldmann (A=600-700 nm) at 50 mW/cm^2 for 10 min and the total dose of light consequently used in the assay is of 30 J/cm^2.
(§4) After illuminating the bacterial or fungal suspension, and suitable dilutions thereof in sterile PBS, they are inoculated on agar plates to determine the number of residual UFCs. The plates are incubated at 37° C. for 24 hours and the results are recorded at the end of this period.

[3] = tested on: Escherichia coli; conditions: 99.9% reduction; 5 min incubation; red light 600-700 nm, 50 mW/cm^2 for 10 min, 30 J/cm^2
Method: as §1, §2, §3, §4

[4] = tested on: Pseudomonas aeruginosa; conditions: 99.9% reduction; 5 min incubation; red light 600-700 nm, 50 mW/cm^2 for 10 min, 30 J/cm^2
Method: as §1, §2, §3, §4

[5] = tested on: Staphylococcus aureus; conditions: 99.9% reduction; 5 min incubation; red light 600-700 nm, 50 mW/cm^2 for 10 min, 30 J/cm^2
Method: as §1, §2, §3, §4

Substance | Loss of purity (% area) [1] | Loss of titre (%) [1] | MFC, 3 log (μM) C. albicans [2] | MBC, 3 log (μM) E. coli [3] [μM] | MBC, 3 log (μM) P. aeruginosa [4] [μM] | MBC, 3 log (μM) S. aureus [5] [μM]
{bis-[bis-(p-N,N,N-trimethylammoniumphenyl)]propylsilyloxy}silicon(IV) phthalocyanine tetrachloride [Compound 3] | insignificant (of ≦ to 0.1% for the loss of purity) | insig- nificant | >50 μM | 3.13 | 1.56 | 0.05
{bis-[bis-(p-N,N,N-trimethylammoniumphenyl)]-3-(N-methyl-piperidine-1-ium)propylsilyloxy}silicon(IV) phthalocyanine hexachloride [Compound 1] | insignificant (of ≦ to 0.1% for the loss of purity) | insig- nificant | 12.5 μM | 6.25 | 6.25 | 0.78
{bis-[3-(N-methyl-piperidin-1-ium)propyl-dipropvlsilyloxy]}silicon(IV) phthalocyanine dichloride [Compound 4] | insignificant (of ≦ to 0.1% for the loss of purity) | insig- nificant | 3.13* μM | 6.25 | 50 | 0.03
{bis-[bis-(3-N,N,N-trimethylammoniumpropyl)]propylsilyloxy}silicon(IV) phthalocyanine tetrachloride [Compound 2] | insignificant (of ≦ to 0.1% for the loss of purity) | insig- nificant | >50 μM | 6.25 | 6.25 | 0.25
{bis-[3-(m-N,N,N-trimethylammoniumphenyloxy)propyl-dipropylsilyloxyl]}silicon(IV) phthalocyanine dichloride [Compound 5] | insignificant (of ≦ to 0.1% for the loss of purity) | insig- nificant | 50 μM | 25 | 25 | 0.1

Reference: US20140163218A1, “NOVEL PHTHALOCYANINE DERIVATIVES FOR THERAPEUTIC USE” (MOLTENI THERAPEUTICS S.R.L., priority 2011, published 2014)
